According to publication PMC10947850 (Angewandte Chemie (International ed. in English), 2024):

Tested on: Fub7
Test: steady-state kinetics of aldehyde alkylation
Assay type: biochemical
Settings: co-substrate O-acetyl-L-homoserine; native nucleophile; PLP enzyme

CCCCCC=O [n-hexanal]
Km: 11 mM
